Common to all, as to type: functional, cell-based
The nature of experiment [1]: Cytotoxicity against epithelial cancer cells (unknown origin). The note with it: Cancer cell lines.
A short description of experiment [2]: Cytotoxicity against gastric cancer cells (unknown origin). Conditions: Cancer cell lines, Stomach.
A short description of experiment [3]: Cytotoxicity against breast cancer cells (unknown origin). The note with it: Cancer cell lines.
A short description of experiment [4]: Cytotoxicity against CCO cells. The note with it: Ictalurus punctatus.
Experiment [5] is described as follows: Cytotoxicity against rat PC12 cells after 24 hrs. The note with it: PC-12, 24 h.
Experiment [6] can be described thus: Cytotoxicity against rat PC12 cells. The note with it: PC-12.

In turn, `c1ccc(CCn2cc[n+](CCc3ccccc3)c2)cc1` gave an IC50 in experiment [1] of 20 µM.

In experiment [1], `Cc1ccc(C[n+]2ccn(Cc3ccccc3)c2)cc1` displayed an IC50 of 30 µM.

`c1ccc(Cc2cn(Cc3ccccc3)c[n+]2Cc2ccccc2)cc1`: it took 20 µM to reach half-maximal inhibition in experiment [1] (IC50).

Regarding `Cc1n(Cc2ccccc2)cc[n+]1Cc1ccccc1`, the IC50 in experiment [2] and in experiment [3] was 35 µM in each case.

Regarding `CCCCCCCCn1cc[n+](C)c1.O=S(=O)([N-]S(=O)(=O)C(F)(F)F)C(F)(F)F`, the EC50 in experiment [4] was below 100 nM.

For `c1c[n+](C23CC4CC(CC(C4)C2)C3)cn1C12CC3CC(CC(C3)C1)C2`, the IC50 in experiment [1] came out at 1 µM.

`Cc1n(Cc2ccccc2)cc[n+]1Cc1ccccc1C(F)(F)F`: the IC50 in experiment [1] is 35 µM.

Regarding `CCCn1cc[n+](C)c1`, in experiment [4], the EC50 is above 10000 nM.

In experiment [4], `CCCCCCCn1cc[n+](C)c1.O=S(=O)([N-]S(=O)(=O)C(F)(F)F)C(F)(F)F` yielded an EC50 below 100 nM.

`CC(=O)Oc1ccc(Cn2cc[n+](Cc3ccccc3)c2C)cc1` gave an IC50 in experiment [1] of 28 µM.

Take `CCCCCCCC[n+]1ccn(C)c1`: a half-maximal response in experiment [5] (EC50) required 560 µM.

`CCCCn1cc[n+](C)c1` showed a 50% effective concentration (EC50) in experiment [6] above 9120 µM.

Take `CC(=O)Oc1ccc(Cn2cc[n+](-c3c(C)cc(C)cc3C)c2)cc1`: the IC50 came out at 10 µM in experiment [2] and 20 µM in experiment [3].

Molecule `CCCCCCCCCCCCn1cc[n+](C)c1` displayed an EC50 in experiment [6] of 24 µM.
